From patent US6156789A, “Method for treating abnormal cell proliferation in the brain” (Rhone-Poulenc Rorer S.A., priority 1998, dated 2000)
Like-named read-outs stand apart in the source and are kept apart here.

Test: Tissue distribution of Compound A in mice with mammary C/16 adenocarcinomas (first method: liver, heart, kidney, lung, spleen, tumor)
Assay type: in vivo, C3H/HeN female mice
Details: for Kp at 1 h / Kp at 14 h / half-life / Tmax / Kp at 0.033 h / Kp at 0.083 h / Kp at 0.25 h / Kp at 4 h / Kp at 0.5 h / Kp at 24 h / Kp at 0.75 h: mouse, iv; for Kp at 0.5 h: 0.50 h
Method: Mammary C/16 adenocarcinomas were implanted in C3H/HeN female mice. At least 7 days later, 4α,10β-diacetoxy-2α-benzoyloxy-5β,20-epoxy-1β-hydroxy-7β,8β-methylene-9-oxo-19-nor-11-taxen-13α-yl (2R,3S)-3-tert-butoxycarbonylamino-2-hydroxy-3-phenylpropionate ("Compound A") was administered to groups of female mice at doses of 9.5, 15.4, 24.8, 40 or 60.5 mg/kg by intravenous injection under 0.4 or 0.5 ml/injection over 15 seconds. The body weight and date of implantation were recorded for each mouse. Blood and tissue samples were taken 2, 5, 15, 30 and 45 minutes and 1, 4, 14, 24 and 48 hours, after administration. The plasma was separated from the blood samples at 4° C. and frozen immediately. The tissue and tumors were weighed and frozen immediately (-20° C.).
The plasma and tissue samples were then analyzed for the concentration of Compound A. The plasma was assayed by high pressure liquid chromatography with spectrophotometric detection. For the tissue, liver, heart, kidney, lung, spleen and tumor tissue, samples were assayed by a first method, while a second method was used for the brain tissue analyzed. In the first method, 0.2 g of tissue was combined with 2 ml of sodium phosphate buffer 0.1 M (pH:7) and homogenized. The homogenate was centrifuged and 0.5 ml of supernatant was injected into the chromatographic column. In the second method, 10 μl of standard solution was combined with 0.2 g of brain tissue. 2 ml of methanol/5% perchloric acid (50/50) were added and the mixture was homogenized. The homogenate was centrifuged and 100 μl of supernatant was injected into the chromatographic column.

[1] = kidney/plasma, 40 mg/kg, 40 μg/kg [sic], mice with tumors, single mice, read-out: Tissue/Plasma Ratio, KIDNEY
[2] = liver/plasma, 40 mg/kg, mice with tumors, single mice, read-out: Tissue/Plasma Ratio, LIVER
[3] = lung/plasma, 40 mg/kg, 40 μg/kg [sic], mice with tumors, single mice, read-out: Tissue/Plasma Ratio, LUNG
[4] = spleen/plasma, 40 mg/kg, mice with tumors, single mice, read-out: Tissue/Plasma Ratio, SPLEEN
[5] = tumor/plasma, 40 mg/kg, mice with tumors, single mice, read-out: Tissue/Plasma Ratio, TUMOR
[6] = tumor/plasma, dose 9.5, single mice, read-out: Tumor/Plasma Ratio
[7] = tumor/plasma, dose 15.4, single mice, MEAN=b373, read-out: Tumor/Plasma Ratio
[8] = tumor/plasma, dose 24.8, single mice, read-out: Tumor/Plasma Ratio
[9] = tumor/plasma, dose 40, single mice, read-out: Tumor/Plasma Ratio
[10] = tumor/plasma, dose 60.5, single mice, read-out: Tumor/Plasma Ratio

CC(=O)O[C@H]1C(=O)[C@]23C[C@H]2C[C@H]2OC[C@@]2(OC(C)=O)[C@H]3[C@H](OC(=O)c2ccccc2)[C@]2(O)C[C@H](OC(=O)[C@H](O)[C@@H](NC(=O)OC(C)(C)C)c3ccccc3)C(C)=C1C2(C)C [Compound A, 4α,10β-diacetoxy-2α-benzoyloxy-5β,20-epoxy-1β-hydroxy-7β,8β-methylene-9-oxo-19-nor-11-taxen-13α-yl (2R,3S)-3-tert-butoxycarbonylamino-2-hydroxy-3-phenylpropionate]
Kp at 1 h [1]: 2.17 | Kp at 14 h [1]: 2.56 | half-life (liver, 40 mg/kg, 40 mg/kg i.v., read-out: half-life of the distribution phase, liver (converted)): 17.4 min | half-life (liver, 40 mg/kg, read-out: t 1/2, Liver (converted)): 186 min | Tmax (liver, 40 mg/kg i.v., read-out: time of maximum concentration, liver): 4.98 min | Kp at 0.033 h [2]: 1.54 | Kp at 0.083 h [2]: 3.07 | Kp at 0.25 h [2]: 1.79 | Kp at 1 h [2]: 1.71 | Kp at 4 h [2]: 0.93 | Kp at 14 h (liver/plasma, 40 mg/kg, mice with tumors, single mouse, read-out: Tissue/Plasma Ratio, LIVER): 1.62 | half-life (lung, 40 mg/kg, 40 mg/kg i.v., read-out: half-life of the distribution phase, lung (converted)): 20.4 min | half-life (lung, 40 mg/kg, read-out: t 1/2, Lung (converted)): 174 min | Tmax (lung, 40 mg/kg i.v., read-out: time of maximum concentration, lung): 4.98 min | Kp at 0.033 h [3]: 0.33 | Kp at 0.083 h [3]: 0.79 | Kp at 0.25 h [3]: 0.95 | Kp at 0.5 h [3]: 1.27 | Kp at 1 h [3]: 1 | Kp at 4 h [3]: 1.43 | Kp at 14 h [3]: 0.81 | half-life (spleen, 40 mg/kg, 40 mg/kg i.v., read-out: half-life of the distribution phase, spleen (converted)): 13.8 min | half-life (spleen, 40 mg/kg, read-out: t 1/2, Spleen (converted)): 450 min | Tmax (spleen, 40 mg/kg i.v., read-out: time of maximum concentration, spleen): 4.98 min | Kp at 0.033 h [4]: 0.46 | Kp at 0.25 h [4]: 0.85 | Kp at 0.5 h [4]: 1.24 | Kp at 1 h [4]: 1.1 | Kp at 4 h [4]: 1.72 | Kp at 14 h [4]: 2.37 | half-life (tissues, 40 mg/kg, 40 mg/kg i.v., tissues other than brain, read-out: half-life in the other tissues): 96 to 558 min | half-life (tissues, 40 mg/kg, 40 mg/kg i.v., tissues tested except tumor and brain, read-out: elimination half-life, slower phase): 96 to 450 min | half-life (tumor, 40 mg/kg, read-out: t 1/2, Tumor (converted)): 558 min | Tmax (tumor, 40 mg/kg i.v., read-out: time of maximum concentration, tumor): 15 min | Kp at 0.033 h [5]: 0.2 | Kp at 0.083 h [5]: 0.37 | Kp at 0.25 h [5]: 0.58 | Kp at 0.5 h [5]: 0.78 | Kp at 1 h [5]: 0.95 | Kp at 4 h [5]: 1.8 | Kp at 24 h [5]: 2.79 | Kp at 0.033 h [6]: 0.24 | Kp at 0.25 h [6]: 0.51 | Kp at 0.75 h [6]: 0.94 | Kp at 1 h [6]: 2.02 | Kp at 4 h [6]: 3.45 | Kp at 0.033 h [7]: 0.23 | Kp at 0.083 h [7]: 0.28 | Kp at 0.25 h [7]: 0.6 | Kp at 0.5 h [7]: 0.97 | Kp at 0.75 h [7]: 1.75 | Kp at 1 h [7]: 1.83 | Kp at 4 h [7]: 1.9 | Kp at 0.033 h [8]: 0.13 | Kp at 0.083 h [8]: 0.28 | Kp at 0.25 h [8]: 0.71 | Kp at 0.75 h [8]: 1.14 | Kp at 1 h [8]: 1.29 | Kp at 4 h [8]: 1.61 | Kp at 0.033 h [9]: 0.2 | Kp at 0.083 h [9]: 0.37 | Kp at 0.25 h [9]: 0.58 | Kp at 0.5 h [9]: 0.78 | Kp at 1 h [9]: 0.95 | Kp at 4 h [9]: 1.8 | Kp at 24 h [9]: 2.79 | Kp at 0.083 h [10]: 0.19 | Kp at 0.25 h [10]: 0.39 | Kp at 0.5 h [10]: 0.62 | Kp at 4 h [10]: 2.48 | Kp at 24 h (tumor/plasma, dose 60.5, single mouse, read-out: Tumor/Plasma Ratio): 13.3 | pharmacokinetics in mice with mammary tumors, linearity (range of doses administered): similarly linear
